Key:
[1] = Cytotoxicity assay (CellTiter-Blue); type: cell-based; conditions: human; HEK293 cells, 48hr of incubation
[2] = tested on: S. aureus biofilm formation; experiment: Crystal violet biofilm inhibition assay; type: cell-based, Staphylococcus aureus; conditions: for effect on biofilm formation (in words): wild type S. aureus, 1–100 μM
Procedure: Overnight cultures of S. aureus (wild-type, transposon mutants and complemented) strains (Table S3) grown in TSB, were subcultured on fresh TSB and grown to OD600 of 0.5. Biofilms were cultured in 96 well plates by transferring 1 μL of the culture to 200 μL of TSB plus 1% glucose with or without the inhibitors and incubated for 16 hours at 37°C without agitation. The inhibitor concentrations ranged from 1, 5, 10, 50 and 100 μM final concentration. Equal volume of DMSO was added as control. The wells were washed to remove the planktonic cells and the plates air-dried before staining with 200μL of 0.1% w/v crystal violet for 10 minutes at room temperature. The wells were washed to remove excess dye and blotted to dry. Each well was filled with 200μL of DMSO for 10 minutes at room temperature to dissolve the dye. The absorbance was measured at 590 nm using Spark multimode microplate reader (TECAN). The data represents n = 3 independent experiments and are expressed as a percentage of the uninhibited wild-type bacteria. All the data are normalized such that 100% represent untreated WT S. aureus. P values were determined using ordinary one-way ANOVA multiple comparisons GraphPad Prism 10.0 software. *P < 0.05, **P < 0.01, ***P < 0.001 and ****P < 0.0001.

[3] = tested on: Fph enzymes in live S. aureus cells (USA300); experiment: Competition of FP-alkyne labeling in live S. aureus cells; type: cell-based, Staphylococcus aureus
Procedure: (§1) One colony of each of S. aureus wild-type and transposon mutants fphB::Tn, fphE::Tn and fphH::Tn picked from growth on a Tryptic soya agar plate were inoculated in 5 mL of Tryptic soya broth (TSB). The overnight bacterial cultures were spun down at 5,000 g for 10 min and pellet was collected. The pellets were washed twice in 1X PBS buffer and resuspended in the same buffer. Cells were first preincubated with the indicated concentrations of inhibitors for 2hr at 37°C. The cells were washed twice with 1X PBS buffer. The resuspended pellets were incubated with Fluorophosphonate-alkyne (FP-alkyne) for 30 min at 37°C. Cells were washed again twice with 1X PBS buffer and resuspended in with 1X PBS and 0.1% Triton–X and lysed by beat beating at 4°C. Next, lysed cells (20 μL) were mixed with 2.16 μL of freshly prepared click mix (0.5 μL of 50 mM CuSO4 in H2O, 1.16 μL of 100 mM BTTAA in DMSO, and 0.5 μL of N3-Cy5 in DMSO) and 1.16 μL of 300 mM sodium ascorbate solution in H2O and incubated at 37 °C for 30 min. Next step, 20 μL of 4X SDS loading buffer was added in each sample and boiled at 100 °C for 10 min. The processed samples were allowed to cool and analyzed by SDS-PAGE (12%) running at 120 V in an electrophoresis chamber. Cy5 fluorescence was imaged using the Cy5 channel on a Typhoon 9410 Imager (Amersham Biosciences).

[4] = molecular target: T1, rFphH (Staphylococcus aureus, UniProt A0A0H2XJL0); experiment: FP-Cy5 active site labeling of recombinant protein, rFphH; type: binding; conditions: 500 nM rFphH
T1 construct: otherwise full-length FphE (Uniprot ID Q2FDS6) and FphH (A0A0H2XJL0) proteins; His6 (3C-cleavable, pETNKI-his-3C-LIC vector) (N); made in house; E. coli is inferred from the pET28a-type vector, IPTG induction and LB/kanamycin
T1 sequence (A0A0H2XJL0 1-246): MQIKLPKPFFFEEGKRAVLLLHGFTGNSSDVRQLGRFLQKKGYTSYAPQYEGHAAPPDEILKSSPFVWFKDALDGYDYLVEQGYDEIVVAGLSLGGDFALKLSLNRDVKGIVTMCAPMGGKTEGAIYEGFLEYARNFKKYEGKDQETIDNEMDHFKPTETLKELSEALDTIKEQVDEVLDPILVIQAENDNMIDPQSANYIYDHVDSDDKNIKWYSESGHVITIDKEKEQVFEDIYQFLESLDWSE
Procedure: (§2) For activity-based protein labeling experiments, 500 nM of rFphB, rFphE and rFphH in 1X PBS and 0.1% Triton–X were preincubated with different concentrations of inhibitors or DMSO for 2hr at room temperature, followed by adding 300 nM of fluorophosphonate (FP) alkyne and incubated for 30 min at room temperature. Next, 20 μL of the reaction volume were mixed with 2.16 μL of freshly prepared click mix (0.5 μL of 50 mM CuSO4 in H2O, 1.16 μL of 100 mM BTTAA in DMSO, and 0.5 μL of N3-Cy5 in DMSO) and 1.16 μL of 300 mM sodium ascorbate solution in H2O. Samples were incubated at 37°C for 30 min, boiled in SDS loading buffer and analyzed by SDS–PAGE. Cy5 fluorescence was imaged using the Cy5 channel on a Typhoon 9410 Imager (Amersham Biosciences).

[5] = tested on: S. aureus wild type and fph transposon mutants; experiment: Bacterial growth inhibition assay, S. aureus; type: cell-based, Staphylococcus aureus; conditions: 1–100 μM
Procedure: (§3) Bacteria were streaked from glycerol stocks onto agar plates and grown overnight at 37°C. A single colony was inoculated in either Tryptic Soy Broth (TSB; Sigma-Aldrich, St. Louis, MO; used for most species) or Bacto Brain Heart Infusion (BHI; Becton, Dickinson, and Company, Franklin Lakes, NJ; used for L. monocytogenes and S. pyogenes) and grown at 37°C shaking until mid-exponential phase (OD600 = 0.5), then diluted 1:10 in cation-adjusted Mueller Hinton Broth (MHB2, Millipore Sigma, Bedford, MA; used for most species) or BHI (for L. monocytogenes and S. pyogenes). 15 μl of this dilution was added to 135 μl of MHB2 or BHI in a flat-bottom clear 96-well plate for a starting inoculum of ~ 5 × 10^5 CFU/ml.
(§4) For bacterial growth inhibition assay, wild-type S. aureus and transposon mutants (fphB::Tn, fphE::Tn and fphH::Tn) were grown with compounds at final concentrations ranging from 1–100 μM and compared to growth in media with an equivalent percentage of DMSO. Each condition was plated as technical duplicates. The plate was incubated at 37°C with shaking every 15 minutes followed by measurement of OD600 for 14 hr. All growth curves were repeated at least twice and analyzed in GraphPad Prism 10.0 software. For bacterial resistance analysis, overnight culture of S. aureus Newman was diluted to an OD600 of 0.01 in MHB. This was followed by pretreatment with 20 μM N34 or equivalent DMSO volume as control. The pretreatment was allowed to proceed for 3 hr before initiating treatment with different concentrations of the test antibiotics (Table S5). The cultures were incubated overnight at 37°C, 5% CO2 before their optical density was read. The EC50 of the antibiotics against the bacteria in the presence or absence of N34 were determined by fitting the normalized data into a four-parameter logistic model in GraphPad Prism 10.0 software.

[6] = tested on: S. epidermidis; experiment: Bacterial growth inhibition assay, S. epidermidis; type: cell-based, Staphylococcus epidermidis
Procedure: as §3
(§5) For bacterial growth inhibition assay, wild-type S. aureus and transposon mutants (fphB::Tn, fphE::Tn and fphH::Tn) were grown with compounds at final concentrations ranging from 1–100 μM and compared to growth in media with an equivalent percentage of DMSO. […] All growth curves were repeated at least twice and analyzed in GraphPad Prism 10.0 software. […] The cultures were incubated overnight at 37°C, 5% CO2 before their optical density was read. The EC50 of the antibiotics against the bacteria in the presence or absence of N34 were determined by fitting the normalized data into a four-parameter logistic model in GraphPad Prism 10.0 software.

[7] = tested on: Streptococcus pyogenes; experiment: Bacterial growth inhibition assay, S. pyogenes; type: cell-based
Procedure: as §3, §5

[8] = tested on: Escherichia coli; experiment: Bacterial growth inhibition assay, E. coli; type: cell-based
[9] = tested on: Pseudomonas aeruginosa; experiment: Bacterial growth inhibition assay, P. aeruginosa; type: cell-based
Procedure: as §3, §5

[10] = tested on: S. aureus Newman; experiment: Antibiotic susceptibility after N34 pretreatment; type: cell-based, Staphylococcus aureus; conditions: 20 μM N34 pretreatment, then antibiotics; Table S5
Procedure: The strong antibiofilm activity of the boronic acid compounds argues for their possible use in combination therapy with antibiotics to treat staphylococcal infections. Therefore, we wanted to test if the N34 treatment impacts the susceptibility profile of the S. aureus to antibiotics. To test this, we pretreated bacteria with a sub-inhibitory concentration of N34 (20 μM) for 2 hours at 37°C followed by treatment with selected antibiotics.
as §4, with “This was followed by pretreatment with 20 μM N34 or equivalent DMSO volume as control. The pretreatment was allowed to proceed for 3 hr before initiating treatment with different concentrations of the test antibiotics (Table S5).” left out

[11] = tested on: HEK293 cells; experiment: Cytotoxicity assay (CellTiter-Blue); type: cell-based; conditions: mammalian cells
[12] = molecular target: T2, Fph enzymes in live S. aureus cells (USA300) (Staphylococcus aureus, UniProt A0A0H2XJG5); experiment: Competition of FP-alkyne labeling in live S. aureus cells; type: cell-based; conditions: live cells, increasing concentrations, 120 min
T2 construct: endogenous in cells; host or cells: live S. aureus USA300 (LAC) wild-type cells
T2 sequence (A0A0H2XJG5 1-322): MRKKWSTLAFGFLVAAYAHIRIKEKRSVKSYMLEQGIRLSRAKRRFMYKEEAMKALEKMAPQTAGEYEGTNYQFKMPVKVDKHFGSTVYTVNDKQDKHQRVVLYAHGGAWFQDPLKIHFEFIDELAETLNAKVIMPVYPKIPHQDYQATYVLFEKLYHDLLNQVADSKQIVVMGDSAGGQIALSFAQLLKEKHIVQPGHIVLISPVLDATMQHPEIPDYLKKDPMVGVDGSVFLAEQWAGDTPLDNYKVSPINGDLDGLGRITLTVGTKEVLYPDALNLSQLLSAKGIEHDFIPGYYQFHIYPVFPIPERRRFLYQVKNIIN
Procedure: as §1

[13] = molecular target: T3, rFphB (Staphylococcus aureus, UniProt A0A0H2XJG5); experiment: FP-Cy5 active site labeling competition of recombinant protein, rFphB; type: binding
T3 construct: made in house
T3 sequence (A0A0H2XJG5 1-322): T2 sequence (A0A0H2XJG5 1-322)
Procedure: as §2

[14] = molecular target: T3, rFphB; experiment: Intact protein LC-MS of rFphB with inhibitor; type: binding; conditions: rFphB:X20 1:10
Procedure: Next, 10 μL of the labeled sample was injected and analyzed by LC-MS. For LC-MS conditions, 95% solvent A (0.1% formic acid in LC-MS grade water), 5% solvent B (0.1% formic acid in LC-MS grade acetonitrile) at 0.6 mL/min was used for 2 min to remove excess of salts into waste before a linear 6-minute gradient from 80% solvent A (20% solvent B) to 20% solvent A (80% solvent B), followed by a one-minute 95% solvent A (5% solvent B). Protein labeling efficiency was quantified by UV. The acquired mass of protein was deconvoluted using the deconvolution software in Agilent Bioanalysis Software package.

| Structure (SMILES) | CC50 at 48 h [1] [µM] | effect on biofilm formation in transposon mutants (in words) ([2]; fphH or fphE transposon mutant) | effect on biofilm formation (in words) [2] | competition of FP labeling in live cells (in words) ([3]; 100 μM compound, live S. aureus cells) | concentration giving partial inhibition of FphE and other lower molecular weight Fph proteins ([3]; live cells, doses 5–100 μM, 120 min preincubation) [µM] | competition of FP-Cy5 labeling of rFphH (in words) [4] | effect on S. aureus growth (in words) [5] | growth inhibition (in words) [6] | growth inhibition (in words) [7] | growth defect (in words) [8] | growth defect (in words) [9] | impact of N34 pretreatment on antibiotic susceptibility (in words) [10] | off-target effects in mammalian cells (in words) [11] | reduction of biofilms ([2]; WT cells, highest concentrations) [%] | reduction of biofilms ([2]; fphB mutant) [%] | competition of FP-alkyne labeling of native FphB (in words) [12] | competition of FP-Cy5 labeling of rFphB (in words) [13] | adduct formation on rFphB (in words) [14] |
| --- | --- | --- | --- | --- | --- | --- | --- | --- | --- | --- | --- | --- | --- | --- | --- | --- | --- | --- |
| OB(O)c1ccc(C(F)(F)F)s1 [N34] | > 200 | not further increased by addition of even 100 μM concentrations of N34 | most pronounced effects | blocked FP labeling of FphH | ≥ 50 | dose-dependently blocked labeling of rFphH | both the fphE and fphH mutants grew slower than wild type | inhibited only by the FphH inhibitor N34 | no growth inhibition | no significant growth defect | no significant growth defect | does not impact resistance or susceptibility profiles of the antibiotics | – | – | – | – | – | – |
| COc1cc2c(cc1S(=O)(=O)F)C(=O)NCCC2 [X20] | – | – | significant inhibition of biofilm formation | – | – | – | minimal effect on planktonic growth | – | – | – | – | – | did not show any off-target effects in mammalian cells | 60 | 40 | retains both its potency and selectivity towards the natively expressed FphB | dose-dependently blocked labeling of rFphB | a single X20 adduct formed |

— paper PMC11661381, “Covalent-fragment screening identifies selective inhibitors of multiple Staphylococcus aureus serine hydrolases important for growth and biofilm formation” (Research Square, 2024)
